Literature values, collected in patent publication US10863763B2, “Prebiotic compositions and uses thereof” (priority 2013, dated 2020).
Read-outs that look alike come from different tables or passages of the source.

Key:
[1] = in vivo
[2] = meta-analysis, 10 trials, n=489; 95% CI 1.8, 0.4
[3] = system: anorexic gut peptides (GLP-1 & PYY); conditions: after 2 weeks of supplementation, relative to maltodextrin placebo
[4] = 16 g/d × 2 wk v maltodextrin placebo
[5] = 8 g/d for 12 months; adolescents, n=97; placebo 1.2
[6] = not given; remark: listed apart in the source
[7] = 21 g/d, 3 months; BMI >25 kg/m2, n=48; relative to maltodextrin control
[8] = not given; remark: listed apart in the source
[9] = in vivo; remark: listed apart in the source
[10] = not given; remark: listed apart in the source
[11] = system: lactobacilli and bifidobacteria in the faeces; conditions: 4.5 g/d for 21 d; healthy and constipated adults
[12] = heating at high temperatures for 60 min
[13] = 4 h 15 min after administration; 58 normal to slightly overweight women
[14] = 50% of patty fat replaced, v full fat patty
[15] = enriched cereal bars, 2 day test period
[16] = not given; remark: listed apart in the source
[17] = 11 RCT, overweight and obese adults
[18] = low pH alone or Maillard reaction conditions

[Cr] [chromium]
adverse effects reported by other authors [1]: constipation, decreased appetite and urticaria | mean difference in weight in favour of chromium over placebo (11 RCT, n=866, 95% CI −0.96, −0.03, 137 to 1000 μg/d): -0.5 kg | BMI or waist to hip circumference [17]: no effect | percentage body fat [17]: modest reduction | adverse effects in participants (disappeared on withdrawal, reappeared on reintroduction): watery stools, vertigo, weakness, nausea, vomiting, dizziness and headaches

chromium picolinate
weighted mean difference in weight in favour of chromium picolinate over placebo [2]: 1.1 kg

fructooligosaccharides [FOS]
release of anorexic gut peptides (GLP-1 & PYY) in response to a test meal [3]: minor transient increases | fullness at dinner [4]: increased | prospective food intake at dinner [4]: decreased | reduction in total energy intake over a 24 hour test period [4]: 5% | satiety at breakfast and dinner [4]: significantly increased | increase in BMI over 12 months [5]: 0.7 kg/m2 | detrimental effects on mineral absorption, lipid metabolism or glycaemic control ([6]; in vivo): failed to find evidence | single dose at which GI adverse effects (bloating, flatulence and diarrhoea) become evident ([6]; in vivo): > 20 g/day | treatment-related toxicity, genotoxicity or carcinogenicity ([6]; in vivo): no evidence | weight change [7]: −1.03 (SD 0.43) kg | prebiotic activity ([8]; heating at low pH): reduced | prebiotic activity [8, 18]: stable

glucomannan
safety in toxicological and genotoxicity studies [9]: safe | weight loss ([10]; 9 RCT, n=379, trials averaging 5.2 weeks, 95% CI −1.53, −0.05, 1.24 to 15.1 g/d): 0.79 kg | weight change in the 3 studies supplying glucomannan in biscuits or granola bars ([10]; biscuits or granola bars): failed to report any significant weight change | weight loss in obese subjects (mean) ([10]; obese subjects): −1.30 (−1.69, −0.91) kg | SOFA fatty acid concentrations in the faeces [11]: increased | proportion of lactobacilli and bifidobacteria in the faeces [11]: increased

inulin
degradation to di-D-fructose dianhydrides [12]: substantial degradation | treatment-related toxicity, genotoxicity or carcinogenicity ([6]; animal studies and clinical trial reports): no evidence | detrimental effects on mineral absorption, lipid metabolism or glycaemic control ([6]; in vivo): failed to find evidence | prebiotic activity ([8]; heating at low pH): reduced | prebiotic activity [8, 18]: stable | decrease in energy intake at an ad libitum lunch [13]: 89.84 kcal | measures of satiety [14]: no effect | total fat intake and total energy intake on the test day ([14]; 33 males): lower | energy intake or any of the 6 subjective ratings of hunger between treatments [15]: no difference

short chain FOS [scFOS]
measures of satiety at breakfast or lunch and food intake during an ad libitum lunch ([16]; two separate doses of 0, 5 and 8 g): failed to alter | energy intake over the remainder of the day ([16]; women consuming the 16 g dose): significantly lower

β-glucan [reference compound]
energy intake or any of the 6 subjective ratings of hunger between treatments [15]: no difference
